According to ChEMBL document CHEMBL1201862, “PubChem BioAssay data set” (2004):
Activity calls are given as the source filed them.

Key:
[1] = target: Cell division cycle 7-related protein kinase (Homo sapiens, UniProt O00311); assay type: functional;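 also: value obtained from a kinome-wide kinase panel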
[2] = target: Cyclin-dependent kinase 9 (Homo sapiens, UniProt P50750); assay type: functional;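 also: value from the CDK9 entry of a kinome-spanning kinase panel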
[3] = target: Cyclin-dependent kinase 7 (Homo sapiens, UniProt P50613); assay type: functional;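 also: value comes from a kinome-wide kinase profiling panel in which CDK7 is one member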
[4] = target: Melanocortin receptor 4 (Homo sapiens, UniProt P32245); assay type: functional, cell-based;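 also: Cell-based assay with luminescence read-out, confirmatory dose-response testing for agonist activity of biased ligands at MC4R; human U2OS cells with tagged receptor and beta-arrestin; potency of agonists that increase receptor coupling to beta-arrestin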
Sequence of Melanocortin receptor 4 (P32245 whole entry): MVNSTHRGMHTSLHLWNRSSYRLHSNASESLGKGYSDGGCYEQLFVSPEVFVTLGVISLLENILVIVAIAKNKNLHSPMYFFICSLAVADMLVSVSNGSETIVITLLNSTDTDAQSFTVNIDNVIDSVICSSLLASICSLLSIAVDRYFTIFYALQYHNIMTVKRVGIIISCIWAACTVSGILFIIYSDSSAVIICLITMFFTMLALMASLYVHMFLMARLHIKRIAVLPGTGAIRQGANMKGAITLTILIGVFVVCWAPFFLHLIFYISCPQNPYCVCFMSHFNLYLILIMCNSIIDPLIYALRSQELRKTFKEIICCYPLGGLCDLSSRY

[5] = Counterscreen for antagonists of the orexin 1 receptor (OX1R; HCRTR1): Fluorescence-based cell-based high throughput dose response assay to identify antagonists of the parental CHO cell line. [Related pubchem assays (depositor defined):AID434989, AID435008, AID463079, AID485270, AID492963, AID492964, AID492965, AID493232, AID504699, AID504701]; assay type: functional
[6] = target: T1, Orexin receptor type 2 (Homo sapiens, UniProt O43614); experiment: Counterscreen assay for antagonists of the orexin 1 receptor (OX1R; HCRTR1): Fluorescence-based cell-based dose response assay for antagonists of the orexin 2 receptor (OX2R; HCRTR2), run by assay provider.; assay type: functional
T1 sequence (O43614 whole entry): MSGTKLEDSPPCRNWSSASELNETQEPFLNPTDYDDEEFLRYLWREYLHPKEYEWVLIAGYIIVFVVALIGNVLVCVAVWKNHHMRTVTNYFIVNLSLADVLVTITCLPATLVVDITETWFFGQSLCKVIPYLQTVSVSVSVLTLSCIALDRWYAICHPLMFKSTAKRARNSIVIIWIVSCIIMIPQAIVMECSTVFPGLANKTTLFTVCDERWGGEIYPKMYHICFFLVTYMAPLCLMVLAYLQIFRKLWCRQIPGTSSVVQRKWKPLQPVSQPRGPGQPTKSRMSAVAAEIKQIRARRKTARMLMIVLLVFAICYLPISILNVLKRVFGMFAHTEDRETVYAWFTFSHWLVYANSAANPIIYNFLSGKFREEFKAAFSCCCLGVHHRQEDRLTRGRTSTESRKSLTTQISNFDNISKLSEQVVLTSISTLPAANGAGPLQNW

[7] = target: T2, Orexin/Hypocretin receptor type 1 (Homo sapiens, UniProt O43613); experiment: Homogeneous Time Resolved Fluorescence (HTRF)-based cell-based high throughput dose response assay for antagonists of the orexin 1 receptor (OX1R; HCRTR1). [Related pubchem assays (depositor defined):AID434989, AID435008, AID463079, AID485270, AID492963, AID492964, AID492965, AID493232, AID504717, AID504718]; assay type: functional
T2 sequence (O43613 whole entry): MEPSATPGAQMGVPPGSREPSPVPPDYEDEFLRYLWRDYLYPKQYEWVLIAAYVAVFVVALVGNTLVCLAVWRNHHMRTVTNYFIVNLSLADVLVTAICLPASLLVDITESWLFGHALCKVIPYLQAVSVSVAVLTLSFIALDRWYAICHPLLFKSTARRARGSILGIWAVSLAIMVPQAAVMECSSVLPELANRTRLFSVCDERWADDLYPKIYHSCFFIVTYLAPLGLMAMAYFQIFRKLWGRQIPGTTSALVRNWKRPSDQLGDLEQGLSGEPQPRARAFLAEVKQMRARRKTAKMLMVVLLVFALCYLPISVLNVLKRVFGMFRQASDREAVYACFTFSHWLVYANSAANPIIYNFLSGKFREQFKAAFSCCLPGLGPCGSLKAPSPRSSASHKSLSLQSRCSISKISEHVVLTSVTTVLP

[8] = target: T1, Orexin receptor type 2; experiment: Counterscreen assay for antagonists of the orexin 1 receptor (OX1R; HCRTR1): Homogeneous Time Resolved Fluorescence (HTRF)-based cell-based dose response assay for antagonists of the orexin 2 receptor (OX2R; HCRTR2), run by assay provider.; assay type: functional
[9] = target: T2, Orexin/Hypocretin receptor type 1; experiment: Fluorescence-based cell-based high throughput dose response assay for antagonists of the orexin 1 receptor (OX1R; HCRTR1). [Related pubchem assays (depositor defined):AID434989, AID435008, AID463079, AID485270, AID492963, AID492964, AID492965, AID493232, AID504717, AID504718]; assay type: functional
[10] = test system: CHO-K1; experiment: Counterscreen for antagonists of the orexin 1 receptor (OX1R; HCRTR1): Homogeneous time resolved fluorescence (HTRF)-based cell-based dose response assay to identify antagonists of the parental CHO-K1 cell line. [Related pubchem assays (depositor defined):AID434989, AID435008, AID463079, AID485270, AID492963, AID492964, AID492965, AID493232, AID504699, AID504701]; assay type: functional; details: Cricetulus griseus;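 also: potency for inhibition of ATP-stimulated IP1 production as antagonists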
[11] = AlphaScreen signal interference compounds, dose response, artefact control for ARNT-TACC3 interaction inhibitor project, biochemical, luminescence, cherry-pick (AID 651705); assay type: functional;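 also: AlphaScreen bead proximity signal that flags compounds interfering with the detection technology; potency reflects signal decrease which marks the compound as an assay artifact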
[12] = target: Rho-associated protein kinase 1 (Homo sapiens, UniProt Q13464); assay type: functional;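 also: measured within a broad kinome-wide panel profiling many kinases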
Sequence of Rho-associated protein kinase 1 (Q13464 whole entry): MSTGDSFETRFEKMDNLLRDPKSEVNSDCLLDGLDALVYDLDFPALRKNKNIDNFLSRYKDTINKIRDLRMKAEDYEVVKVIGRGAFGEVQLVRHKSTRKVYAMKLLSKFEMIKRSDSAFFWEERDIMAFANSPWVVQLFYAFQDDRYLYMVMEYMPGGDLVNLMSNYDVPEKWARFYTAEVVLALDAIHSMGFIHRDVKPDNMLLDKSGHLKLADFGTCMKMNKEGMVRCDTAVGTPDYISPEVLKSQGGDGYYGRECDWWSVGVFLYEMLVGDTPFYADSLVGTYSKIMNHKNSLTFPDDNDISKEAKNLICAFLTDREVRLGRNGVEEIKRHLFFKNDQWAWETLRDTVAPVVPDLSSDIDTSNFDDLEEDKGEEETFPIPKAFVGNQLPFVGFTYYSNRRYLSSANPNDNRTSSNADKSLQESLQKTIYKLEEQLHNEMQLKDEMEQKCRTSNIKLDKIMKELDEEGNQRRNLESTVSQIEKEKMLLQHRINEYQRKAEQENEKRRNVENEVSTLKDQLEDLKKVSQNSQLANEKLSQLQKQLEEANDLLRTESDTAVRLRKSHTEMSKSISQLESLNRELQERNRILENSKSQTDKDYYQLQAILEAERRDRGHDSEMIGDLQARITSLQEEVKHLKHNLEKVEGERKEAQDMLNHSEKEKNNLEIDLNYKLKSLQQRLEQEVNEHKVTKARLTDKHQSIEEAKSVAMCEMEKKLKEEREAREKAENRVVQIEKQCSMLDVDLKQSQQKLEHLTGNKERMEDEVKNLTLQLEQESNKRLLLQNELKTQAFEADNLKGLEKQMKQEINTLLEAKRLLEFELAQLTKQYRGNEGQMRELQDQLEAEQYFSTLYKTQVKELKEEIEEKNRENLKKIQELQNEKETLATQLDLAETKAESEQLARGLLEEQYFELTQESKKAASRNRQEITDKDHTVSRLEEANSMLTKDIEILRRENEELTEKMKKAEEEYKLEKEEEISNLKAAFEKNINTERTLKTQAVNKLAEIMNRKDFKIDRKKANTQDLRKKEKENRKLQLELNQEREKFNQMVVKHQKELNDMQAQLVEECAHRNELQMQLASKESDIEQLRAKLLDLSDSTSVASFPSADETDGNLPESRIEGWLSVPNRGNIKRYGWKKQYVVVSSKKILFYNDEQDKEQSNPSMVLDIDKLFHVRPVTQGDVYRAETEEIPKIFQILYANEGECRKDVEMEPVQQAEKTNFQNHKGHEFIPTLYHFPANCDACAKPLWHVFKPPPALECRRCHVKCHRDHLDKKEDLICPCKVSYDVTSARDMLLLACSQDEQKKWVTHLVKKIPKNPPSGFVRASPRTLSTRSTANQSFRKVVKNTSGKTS

[13] = target: Dual specificity protein kinase CLK4 (Homo sapiens, UniProt Q9HAZ1); assay type: functional
Sequence of Dual specificity protein kinase CLK4 (Q9HAZ1 whole entry): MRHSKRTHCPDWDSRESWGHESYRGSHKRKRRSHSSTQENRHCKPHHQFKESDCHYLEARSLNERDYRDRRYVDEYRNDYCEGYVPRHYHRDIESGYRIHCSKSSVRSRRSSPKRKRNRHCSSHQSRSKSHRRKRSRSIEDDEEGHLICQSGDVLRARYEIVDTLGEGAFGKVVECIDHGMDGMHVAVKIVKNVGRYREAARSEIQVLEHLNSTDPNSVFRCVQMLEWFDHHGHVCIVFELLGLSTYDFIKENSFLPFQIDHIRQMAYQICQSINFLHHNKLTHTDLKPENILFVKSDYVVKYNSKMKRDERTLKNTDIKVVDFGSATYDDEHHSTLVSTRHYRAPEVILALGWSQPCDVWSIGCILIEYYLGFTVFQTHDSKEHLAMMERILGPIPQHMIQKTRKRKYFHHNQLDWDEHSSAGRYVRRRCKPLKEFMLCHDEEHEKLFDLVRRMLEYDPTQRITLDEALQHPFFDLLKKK

[14] = target: T3, Aryl hydrocarbon receptor (Homo sapiens, UniProt P35869); details: Potency;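 also: confirmatory quantitative high-throughput screen measuring activation of the AhR signaling pathway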
T3 sequence (P35869 whole entry): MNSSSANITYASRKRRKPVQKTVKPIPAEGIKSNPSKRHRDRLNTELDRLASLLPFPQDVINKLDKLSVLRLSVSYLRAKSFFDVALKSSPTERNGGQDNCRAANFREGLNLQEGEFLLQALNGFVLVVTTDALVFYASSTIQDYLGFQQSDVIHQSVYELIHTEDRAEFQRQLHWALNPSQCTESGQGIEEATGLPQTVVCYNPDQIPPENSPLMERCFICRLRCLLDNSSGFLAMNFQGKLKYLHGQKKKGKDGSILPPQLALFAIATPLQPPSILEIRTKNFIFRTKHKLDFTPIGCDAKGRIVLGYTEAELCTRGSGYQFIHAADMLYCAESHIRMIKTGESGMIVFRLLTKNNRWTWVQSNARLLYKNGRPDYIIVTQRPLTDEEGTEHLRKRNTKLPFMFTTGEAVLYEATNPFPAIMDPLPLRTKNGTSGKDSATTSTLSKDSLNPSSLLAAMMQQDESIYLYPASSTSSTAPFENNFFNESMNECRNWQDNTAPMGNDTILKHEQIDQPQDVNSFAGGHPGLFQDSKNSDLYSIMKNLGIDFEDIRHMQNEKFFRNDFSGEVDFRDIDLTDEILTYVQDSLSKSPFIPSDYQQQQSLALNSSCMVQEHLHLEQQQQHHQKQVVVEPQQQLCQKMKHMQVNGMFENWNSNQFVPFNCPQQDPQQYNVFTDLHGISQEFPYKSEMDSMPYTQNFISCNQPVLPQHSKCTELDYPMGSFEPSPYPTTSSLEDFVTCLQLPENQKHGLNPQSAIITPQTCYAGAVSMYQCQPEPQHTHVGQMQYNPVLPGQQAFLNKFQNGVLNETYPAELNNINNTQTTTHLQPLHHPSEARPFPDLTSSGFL

[15] = Shn3 3'UTR reporter inhibitors, dose response, cell-based, Clone20 osteoblasts, firefly luciferase, cherry-picked (AID 624132); assay type: functional;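 also: firefly luciferase luminescence from reporter carrying the Shn3 3'UTR in osteoblasts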
[16] = control 3'UTR Renilla luciferase suppression, dose response, counter-screen for Shn3 inhibitor project, cell-based, Clone20-Shn3RL, cherry-picked (AID 624133); assay type: functional
[17] = target: Protein Wnt-3a (Mus musculus, UniProt P27467); experiment: Wnt3a-driven reporter signaling inhibition, dose response, selectivity assay for Gli-SUFU antagonist project, Wnt-LIGHT cells, luminescence (AID 651570); assay type: functional; details: read-out: IC50_Mean;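 also: Wnt-LIGHT reporter cells stimulated with conditioned medium from Wnt3a-producing cells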
Sequence of Protein Wnt-3a (P27467 whole entry): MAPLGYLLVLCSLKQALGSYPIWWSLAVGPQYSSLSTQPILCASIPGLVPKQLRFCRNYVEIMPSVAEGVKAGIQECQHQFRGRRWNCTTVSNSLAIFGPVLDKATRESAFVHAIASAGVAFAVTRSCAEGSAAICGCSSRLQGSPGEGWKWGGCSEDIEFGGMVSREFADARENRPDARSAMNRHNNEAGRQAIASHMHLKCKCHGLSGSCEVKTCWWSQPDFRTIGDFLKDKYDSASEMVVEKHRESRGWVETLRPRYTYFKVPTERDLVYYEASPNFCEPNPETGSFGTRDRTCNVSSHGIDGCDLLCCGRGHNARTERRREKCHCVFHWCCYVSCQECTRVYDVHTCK

[18] = HepG2 cell cytotoxicity, dose response, cytotoxicity control for Shn3 inhibitor project, CellTiter-Glo, cherry-picked (AID 624134); assay type: functional, cell-based
[19] = target: Casein kinase I isoform gamma-1 (Homo sapiens, UniProt Q9HCP0); assay type: functional;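 also: measured as the CSNK1G1 member of a kinome profiling panel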
[20] = target: Serine/threonine-protein kinase pim-1 (Homo sapiens, UniProt P11309); assay type: functional
[21] = target: Glucose-6-phosphate 1-dehydrogenase (Homo sapiens, UniProt P11413); experiment: human G6PD enzyme inhibitors, dose response, selectivity assay for P. falciparum G6PD inhibitor project, biochemical, fluorescence (AID 504792); assay type: functional
Sequence of Glucose-6-phosphate 1-dehydrogenase (P11413 whole entry, the tested form may be a part): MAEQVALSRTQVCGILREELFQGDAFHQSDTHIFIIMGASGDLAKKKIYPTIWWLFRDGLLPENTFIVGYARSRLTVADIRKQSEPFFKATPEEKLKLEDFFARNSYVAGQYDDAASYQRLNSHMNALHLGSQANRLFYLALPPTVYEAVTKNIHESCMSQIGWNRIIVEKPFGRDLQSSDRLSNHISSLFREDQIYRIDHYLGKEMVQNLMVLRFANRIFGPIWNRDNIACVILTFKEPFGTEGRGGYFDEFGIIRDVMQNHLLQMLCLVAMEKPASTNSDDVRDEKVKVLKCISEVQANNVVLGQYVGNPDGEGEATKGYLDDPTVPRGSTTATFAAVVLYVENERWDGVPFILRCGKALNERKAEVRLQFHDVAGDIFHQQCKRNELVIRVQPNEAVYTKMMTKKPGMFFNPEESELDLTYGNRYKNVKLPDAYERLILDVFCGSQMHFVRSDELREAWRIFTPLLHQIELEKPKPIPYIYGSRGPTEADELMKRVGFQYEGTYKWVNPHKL

[22] = test system: CHO; experiment: cytotoxicity in TLR9-MyD88 CHO cells, dose response, cytotoxicity control for TLR9-MyD88 binding inhibitor project, cell-based, luminescence (AID 588339); assay type: functional, hamster; details: Cricetulus griseus;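 also: CHO cells stably coexpressing TLR9 and MyD88 fusions from primary screen; compound exposure lasted 48 hours before viability readout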
[23] = target: Mitochondrial peptide methionine sulfoxide reductase (Bos taurus, UniProt P54149); experiment: Absorbance-based biochemical high throughput dose response assay for activators of Methionine sulfoxide reductase A (MsrA).; assay type: functional
[24] = target: Hexokinase (Trypanosoma brucei, UniProt Q38C41); experiment: Confirmation assay for inhibitors of Trypanosoma brucei hexokinase 1-Analogue-first series. [Related pubchem assays (depositor defined):AID1430, AID1632, AID2516, AID2560, AID2579, AID2600, AID449725, AID492951]; assay type: functional
Sequence of Hexokinase (Q38C41 whole entry): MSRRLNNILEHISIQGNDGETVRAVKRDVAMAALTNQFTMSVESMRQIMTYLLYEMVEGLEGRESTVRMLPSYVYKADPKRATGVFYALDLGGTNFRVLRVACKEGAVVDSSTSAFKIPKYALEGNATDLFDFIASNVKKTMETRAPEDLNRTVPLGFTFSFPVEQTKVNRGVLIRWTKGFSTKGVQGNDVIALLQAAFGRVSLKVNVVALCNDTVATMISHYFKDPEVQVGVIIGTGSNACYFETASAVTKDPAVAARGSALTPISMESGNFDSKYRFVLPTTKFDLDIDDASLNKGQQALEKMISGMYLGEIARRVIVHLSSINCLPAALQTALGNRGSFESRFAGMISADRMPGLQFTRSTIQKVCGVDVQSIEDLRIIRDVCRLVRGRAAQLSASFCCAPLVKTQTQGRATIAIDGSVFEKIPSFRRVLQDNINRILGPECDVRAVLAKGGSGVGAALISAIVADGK

[25] = target: Beta Lactamase (Pseudomonas aeruginosa, UniProt Q932Y6); experiment: beta-lactamase reporter inhibitor potency, dose response, artefact control for TLR9-MyD88 binding inhibitor project, BLA reporter cells, FRET fluorescence (AID 588341); assay type: cell-based;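 also: cell based assay in CHO-K1 cells stably expressing beta-lactamase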
Sequence of Beta Lactamase (Q932Y6 whole entry): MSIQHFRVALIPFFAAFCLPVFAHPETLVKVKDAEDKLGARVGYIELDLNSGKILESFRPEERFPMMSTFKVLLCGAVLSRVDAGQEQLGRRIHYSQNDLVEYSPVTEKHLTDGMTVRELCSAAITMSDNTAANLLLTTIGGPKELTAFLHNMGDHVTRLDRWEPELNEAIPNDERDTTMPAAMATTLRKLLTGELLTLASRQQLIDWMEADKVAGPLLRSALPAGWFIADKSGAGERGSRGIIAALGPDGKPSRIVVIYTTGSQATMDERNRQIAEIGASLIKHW

[26] = target: Adenosylmethionine-8-amino-7-oxononanoate aminotransferase (Mycobacterium tuberculosis, UniProt P9WQ81); experiment: Mycobacterium tuberculosis BioA enzyme inhibitor Measured in Biochemical System Using Plate Reader - 2163-02_Inhibitor_Dose_CherryPick_Activity.; assay type: functional, Mycobacterium tuberculosis UT205
[27] = target: Photoreceptor-specific nuclear receptor (Homo sapiens, UniProt Q9Y5X4); assay type: functional, cell-based;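 also: CHO-S cells with Gal4-NCOR and VP16-NR2E3 two-hybrid luciferase reporter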
[28] = target: Ras and Rab interactor 1/Tyrosine-protein kinase ABL1 (Homo sapiens, UniProt P00519+Q13671); assay type: functional;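 also: biochemical TR-FRET dose-response test measuring inhibition of binding between Rin1 and Abl proteins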
[29] = target: T4, Interleukin-8 (Homo sapiens, UniProt P10145); experiment: Dose Response confirmation of uHTS small molecule hits for cystic fibrosis induced NFkb Inhibitors in a PAF-induced IL8 counterscreen.; assay type: functional; details: read-out: IC50_Mean
T4 sequence (P10145 whole entry): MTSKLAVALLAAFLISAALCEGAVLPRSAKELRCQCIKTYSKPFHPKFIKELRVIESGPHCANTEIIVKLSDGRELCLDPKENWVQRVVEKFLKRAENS

[30] = target: T4, Interleukin-8; experiment: Dose Response confirmation of uHTS small molecule hits for cystic fibrosis induced NFkb Inhibitors in a TNFa-induced IL8 counterscreen.; assay type: functional; details: read-out: IC50_Mean
[31] = target: T5, Probable nicotinate-nucleotide adenylyltransferase (Staphylococcus aureus (strain N315), UniProt P65502); assay type: functional, Staphylococcus aureus subsp. aureus N315;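 as to IC50 Mean: confirmatory dose-response retesting of NadD inhibitor hits first found in an ultra-high-throughput screen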
T5 sequence (P65502 whole entry): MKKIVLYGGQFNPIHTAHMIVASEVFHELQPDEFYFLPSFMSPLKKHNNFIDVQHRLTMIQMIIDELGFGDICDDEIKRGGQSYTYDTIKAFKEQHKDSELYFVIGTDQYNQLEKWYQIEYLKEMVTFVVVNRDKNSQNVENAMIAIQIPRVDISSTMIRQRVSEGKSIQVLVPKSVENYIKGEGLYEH

[32] = target: T5, Probable nicotinate-nucleotide adenylyltransferase; assay type: functional, Staphylococcus aureus subsp. aureus N315; details: read-out: IC50_Mean
[33] = target: Potassium voltage-gated channel subfamily KQT member 2 (Rattus norvegicus, UniProt O88943); experiment: KCNQ2 potassium channel inhibitors, dose response, cell-based, automated electrophysiology, set II, rat KCNQ2 (AID 588637); assay type: functional
Sequence of Potassium voltage-gated channel subfamily KQT member 2 (O88943 whole entry): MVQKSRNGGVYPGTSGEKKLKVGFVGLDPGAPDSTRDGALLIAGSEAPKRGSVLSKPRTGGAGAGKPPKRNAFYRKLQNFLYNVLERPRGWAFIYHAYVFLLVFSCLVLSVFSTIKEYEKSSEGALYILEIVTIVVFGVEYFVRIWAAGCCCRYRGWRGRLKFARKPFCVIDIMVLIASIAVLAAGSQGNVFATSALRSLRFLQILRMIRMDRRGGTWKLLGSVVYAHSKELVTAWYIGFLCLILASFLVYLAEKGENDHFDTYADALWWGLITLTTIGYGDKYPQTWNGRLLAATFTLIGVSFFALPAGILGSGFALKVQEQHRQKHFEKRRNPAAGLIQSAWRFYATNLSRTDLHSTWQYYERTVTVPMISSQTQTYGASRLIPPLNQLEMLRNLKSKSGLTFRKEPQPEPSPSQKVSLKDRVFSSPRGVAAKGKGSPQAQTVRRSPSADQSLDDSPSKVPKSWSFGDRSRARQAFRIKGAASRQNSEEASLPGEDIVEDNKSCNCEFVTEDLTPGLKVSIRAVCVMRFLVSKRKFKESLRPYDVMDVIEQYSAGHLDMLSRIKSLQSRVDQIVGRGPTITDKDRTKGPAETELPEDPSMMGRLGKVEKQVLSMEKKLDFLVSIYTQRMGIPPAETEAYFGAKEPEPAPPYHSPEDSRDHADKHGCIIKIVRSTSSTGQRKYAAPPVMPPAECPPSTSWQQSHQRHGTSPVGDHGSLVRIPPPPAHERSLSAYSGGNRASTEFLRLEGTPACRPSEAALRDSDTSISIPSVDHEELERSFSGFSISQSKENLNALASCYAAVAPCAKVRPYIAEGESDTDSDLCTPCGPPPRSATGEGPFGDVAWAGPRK

## COCCN(CCOC)c1nc(OC)cc(-c2c[nH]c3ncccc23)n1
[1]
  Ki: 0.1 µM (active)
[2]
  Ki: > 2.51 µM (inactive)
[3]
  Ki: > 2.51 µM (inactive)

## COc1ccccc1-c1cc(NC(C)=O)c2ncc(-c3ccccc3)n2c1
[4]
  EC50: > 89.2 µM (inactive)

## Cc1c(C(=O)OC(C)C(=O)N(C)Cc2ccccc2)oc2ccccc12 (stereo not given)
[5]
  IC50: 43.3 µM (inactive)
[6]
  IC50: 9.6 µM (active)
[7]
  IC50: 0.717 µM (active)
[8]
  IC50: 5.52 µM (active)
[9]
  IC50: 6.49 µM (active)
[10]
  IC50: > 66.2 µM (inactive)

## Nn1c(SCC(=O)Nc2ccc3c(c2)OCCO3)nnc1-c1ccccn1
[11]
  AC50: 107 µM (active)

## Nc1nonc1-n1cc(CO)nn1
[12]
  Ki: 39.8 µM (active)
[13]
  Ki: 63.1 µM (active)

## Nc1ccc(/N=N/c2ccccc2)cc1
[14]
  AC50: 50.1 µM (inconclusive)

## Cc1ccc(S(=O)(=O)N2CCN(C(=O)C3CCN(c4ncnc5sc(C)c(C)c45)CC3)CC2)c(C)c1
[15]
  AC50: 2.12 µM (active)
[16]
  AC50: 1.43 µM (active)
[17]
  IC50: 14.7 µM (active)
[18]
  AC50: 46 µM (active)

## O=C1CC(c2ccc(F)cc2)Cc2[nH]c3cc(Cl)ccc3c(=O)c21 (stereo not given)
[19]
  Ki: 3.98 µM (active)
[13]
  Ki: 6.31 µM (active)
[20]
  Ki: 3.98 µM (active)

## O=c1c2cc([N+](=O)[O-])ccc2sn1-c1ccccc1
[21]
  IC50: 11.3 µM (active)
[22]
  IC50: 12.1 µM (inactive)
[23]
  EC50: > 104 µM (inactive)
[24]
  IC50: > 25 µM (inactive)
[25]
  IC50: > 49.7 µM (inactive)

## C=CCn1c(SCc2c(C(=O)OC)sc(N)c2C(=O)OC)nnc1-c1ccc(Br)cc1
[26]
  AC50: 0.233 µM (active)

## Cc1ccc(CN2CC(C(=O)Nc3ncc(C)s3)CC2=O)cc1 (stereo not given)
[27]
  IC50: 1.26 µM (active)

## CCSCCO/C(O)=C1\C(C)=NC2=C(C(=O)CCC2)C1c1coc2ccccc2c1=O (stereo not given)
[28]
  IC50: > 73.5 µM (inactive)

## COC(=O)N1C(=O)[C@@](c2ccc(OC)cc2)(C(C)C)N1C(=O)OC
[29]
  IC50: 2.4 µM (active)
[30]
  IC50: 3.22 µM (active)

## O=C1CC(=C2c3ccccc3-c3ccccc32)C(=O)N1CCN1CCN(c2cccc(Cl)c2)CC1
[31]
  IC50: 13.5 µM (active)
[32]
  IC50: 26.6 µM (active)

## O=C(CN1CCCc2ccccc21)NCCc1ccc(Cl)cc1
[33]
  IC50: 8.54 µM (active)

## CCc1cc(C(=O)OCC(=O)N2CCC(c3ccccc3)=N2)sc1C
[5]
  IC50: > 49.8 µM (inactive)
[6]
  IC50: > 88.8 µM (inactive)
[7]
  IC50: 2.45 µM (active)
[8]
  IC50: > 50 µM (inactive)
[9]
  IC50: 3.47 µM (active)
[10]
  IC50: > 66.2 µM (inactive)
